Test results reported in US6605609B2, “Thizaine oxazolidinone” (Pharmacia & Upjohn Company, priority 2000, dated 2003).
Converted amounts (≈) assume the structure as drawn.

Legend:
[1] = tested on: S. aureus (52 isolates), methicillin-resistant; assay: MIC by agar dilution (MIC90); type: cell-based, Staphylococcus aureus; details: minimum inhibitory concentration required to inhibit 90% of the isolates
Text: The in vitro activity of the compound of this invention can be assessed by standard testing procedures such as the determination of minimum inhibitory concentration (MIC) by agar dilution as described in “Approved Standard. Methods for Dilution Antimicrobial Susceptibility Tests for Bacteria That Grow Aerobically”, 3rd. ed., published 1993 by the National Committee for Clinical Laboratory Standards, Villanova, Pa., USA.

[2] = Loss during and following terminal moist heat sterilization in container; type: physicochemical; details: container-solution contact surface made of at least 50% polyolefin
Text: When terminally moist heat sterilizing an IV solution, the solution is placed in the container in which (1) it will be stored and then transferred to the container from which it will ultimately be administered, or (2) stored and then ultimately administered from the same container to deliver the IV solution to the patient. […] What is essential is that the container-solution contact surface material be primarily a polyolefin; the remainder of the container can be made from polyolefin or other materials. It is preferred that the container-solution contact surface is made of from about 50 to about 100% polyolefin. It is more preferred that the container-solution contact surface is made of from about 70 to about 90% polyolefin. It is more preferred that the container-solution contact surface is made of from about 80% polyolefin. It is even more preferred that the container-solution contact surface is made of polyolefin.

SMILES	MIC90 S. aureus (52 isolates), methicillin-resistant [1]	melting point	loss of the compound during and following terminal moist heat sterilization [2]
CC(=O)NC[C@H]1CN(c2ccc(N3CCOCC3)c(F)c2)C(=O)O1 [linezolid, reference compound]	4 µg/mL (≈ 11.9 µM)	–	–
CC(=O)NC[C@H]1CN(c2cc(F)c(N3CCS(=O)(=O)CC3)c(F)c2)C(=O)O1 [The compound of formula I, N-({(5S)-3-[4-(1,1-dioxido-4-thiomorpholinyl)-3,5-difluorophenyl]-2-oxo-1,3-oxazolidin-5-yl}methyl)acetamide]	2 µg/mL	187 to 189.5 °C	significantly much less loss
